Experimental data reported in patent US7314959B2, “Amino thiol compounds and compositions for use in conjunction with cancer therapy” (Wisconsin Alumni Research Foundation, priority 2003, dated 2008).

Columns and labels:
[1] = test system: Cytoxan-induced alopecia in rat pups; assay: Cytoxan-induced alopecia in rat pups; assay type: in vivo
Procedure: Induction of alopecia by cytoxan (CTX). Lactating Sprague Dawley mother rats with rat pups were purchased from Harlan Sprague Dawley (Indianapolis, Ind.). The mother rats were given food and water ad libitum. The rats pups were tested in the model of chemotherapy-induced alopecia described by Hussein A. M. et al., Science: 249, 1564 (1990). Cytoxan (CTX), a chemotherapeutic widely used in the treatment of cancer, was used to induce alopecia in the rats. A common side effect of cytoxan treatment in patients is alopecia. Lyophilized vials of Cytoxan were obtained from Mead-Johnson. To produce CTX-induced alopecia, 11 day old rat pups, which are at the peak of coat growth, were injected i.p. with 30-35 μg of CTX/gm body weight. CTX was dissolved in water. By day 18 of life, the animals have shed virtually 100% of their coat leaving bare skin on their backs. Thus, topical application of protective drugs to the animal's back prior to the CTX insult provides a suitable test for prevention of chemotherapy-induced alopecia. A separate alopecia assay was also developed in which whole-body irradiation on day 11 of life was used as the insult. This assay is described in further detail in Example 12 which follows.
In the earliest studies with chemoprotective polyamines, the molecules were prepared in a topical delivery vehicle consisting of from 50-70% ethanol in water, depending on the solubility of the compound. The compounds in ethanol/water solution from 50-150 µl in volume were topically administered to the backs of the pups once per day before and after CTX challenge. Using a micropipette, the formulation was applied to an approximately 2 cm2 section of skin on the backs of the rat pups. Specifically, the pups were treated once daily for the 4-5 days before CTX challenge, once on the day of CTX challenge and once daily for 5 days afterwards. Control groups consisted of pups receiving only delivery vehicle. […]
In the earliest studies with chemoprotective polyamines, hair loss was evaluated using a modified alopecia-scoring index described by Chen G. et al., Int. […] In the later studies with aminothiols a simpler scoring scale was adopted in which coat density was scored on a 0-100 scale as “% of normal coat density.”
Method: To assess the ability of topical treatments to prevent Cytoxan-induced alopecia we used a published protocol (Hussein et al., Science. 249(4976):1564-6, 1990) in which 11 day old neonate rat pups (Sprague-Dawley) receive a total of 6 topical skin treatments of active agent(s) during the 5 hr before and 2 hr after a single ip dose of Cytoxan (32 ug/gm b.w.). […] The density of the rat coats in the topical treatment area was scored on day 18 of life for animals injected with Cytoxan.

[2] = test system: hamster cheek pouch mucosa; assay: Radiation-induced mucositis, hamster cheek pouch model; assay type: in vivo; conditions: 50 mM or 500 mM topical for 30 min before 30 Gy (17.5 min) irradiation
Text: The model for radiation-induced oral mucositis was developed for the purpose of screening and identifying effective polyamines and aminothiols useful for treatment. The model used in this example was derived from the oral mucositis model described by Alvarez et al. (Clin. Cancer Research 9:3454-3461, 2003). Male golden Syrian hamsters (70-95 gram, Charles River Laboratories, Wilmington, Mass.) were used. Animals were individually numbered, housed in small groups and fed and watered ad libitum. Hamsters were anesthetized with sodium pentobarbital (80 mg/kg body weight, Sigma, St. Louis, Mo.). The left buccal cheek pouch was everted and secured. A protective lead shield covered the remainder of the animal. Subsequently, the cheek pouch was irradiated with a single dose of radiation from 20 to 40 Gy delivered to the targeted mucosa in the ^137Cs irradiator. Starting 10 to 12 days after radiation, the severity of mucositis was assessed every two days. The severity level of mucositis was evaluated using a modified mucositis scoring system described by Sonis S. T. et al. (Oral Oncology 36:373-381, 2000)
The scoring system was as follows: • 0=Pouch completely healthy. No erythema or vasodilatation. • 1=Erythema. • 2=Severe erythema, vasodilatation • 3=Severe erythema/vasodilatation. Superficial erosion on radiated pouch surface area. • 4=Formation of ulcers in one or more places. […]

CNCC(CS)CNC [PrC-210, 3-methylamino-2-methylaminomethyl-propane-1-thiol]
Alopecia Score (% Normal Coat Density in Topical Treatment Area) ([1]; 2000 mM PrC-210 alone, ip Cytoxan 32 ug/gm b.w., Experiment 552-555): 9%
effect in preventing Cytoxan-induced alopecia ([1]; neonate rats, three days topical resveratrol and/or topical PrC-210): weak effect
effect on radiation-induced erythema, swelling and inflexibility of cheek pouch [2]: significant decrease in the erythema, swelling and inflexibility
